From patent US20250332173A1, “COMPOUNDS AND METHODS FOR MODULATING NUCLEIC ACID SPLICING” (REMIX THERAPEUTICS INC., priority 2021, published 2025)
Read-outs that look alike come from different tables or passages of the source.

What was measured:
[1] = system: HTT; test: HiBiT protein abundance assay, HTT HiBiT K562 cell line; type: cell-based, human; conditions: 24 hours, top dose 10 μM
Procedure, shortened: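 K562 knock-in lines with endogenous HiBiT-tagged target, 10,000 cells/well in IMDM + FBS, treated 24 h at 37° C with 10-point 3-fold dilutions (top 10 μM final; DMSO ≤0.25%). Lytic Nano-Glo HiBiT luminescence normalized to untagged K562 baseline and DMSO controls; IC50 = concentration giving 50% abundance via four-parameter fit.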

[2] = system: SMN2 mRNA; test: RT-qPCR splicing assay, SMN2 canonical junction (CJ) mRNA; type: cell-based, human; conditions: Homo sapiens
Procedure, shortened: (§1)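 Canonical-junction transcript levels in compound-treated A673 or K562 cells (24 h, up to 10 uM final) were determined from lysates by RT-qPCR with housekeeping-gene normalization.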

[3] = system: K562 (human chronic myelogenous leukemia) cells; test: Cell Titer Glo 2.0 cell viability assay; type: cell-based; conditions: K562 cells, 72 hours, Cell Titer Glo 2.0, read-out: K562 GI50
[4] = system: Target C; test: RT-qPCR splicing assay panel, Target C canonical junction (CJ) mRNA; type: cell-based, human; conditions: Homo sapiens
Procedure, shortened: as §1

[5] = HiBiT lytic detection, modified K562 cells, read-out: Effect on protein abundance, HTT (IC50)
[6] = canonical junction qPCR panel, Table 5, read-out: SMN2 (decrease in CJ mRNA levels, IC50)
[7] = canonical junction qPCR panel, Table 5, read-out: Target C (decrease in CJ mRNA levels, IC50)
[8] = HiBiT K562 cell line, read-out: Effect on protein abundance, HTT (IC50 category)
[9] = Table 5 panel, canonical junction qPCR, compound concentration having 50% response in CJ decrease, read-out: SMN2 IC50 (decrease in CJ mRNA levels)
[10] = Table 5 panel, canonical junction qPCR, compound concentration having 50% response in CJ decrease, read-out: Target C IC50 (decrease in CJ mRNA levels)

| Compound | IC50 [1, 5] | IC50 [2, 6] | GI50 ([3]; Homo sapiens, K562, 72 h) | IC50 [4, 7] | IC50 [1, 8] | IC50 [2, 9] | IC50 [4, 10] | GI50 [3] |
| --- | --- | --- | --- | --- | --- | --- | --- | --- |
| CCN1CC[C@@H](n2ncc3nc(-c4cc(C)c5nc(C)cn5n4)ccc3c2=O)CC12CC2 [Compound 1530] | < 100 nM | < 100 nM | 100 to 1000 nM | < 100 nM | – | – | – | – |
| Cc1cn2cc(-c3ccc4c(=O)n(C5CCNC6(CC6)C5)cnc4c3)cc(F)c2n1 (centres unmarked) [Compound 236] | – | – | 100 to 1000 nM | – | 100 to 1000 nM | < 100 nM | 100 to 1000 nM | – |
| Cc1cc(-c2ccc3c(=O)n(C4CCN(C)CC4)cnc3c2F)cc2cn(C)nc12 [Compound 235] | – | – | 1000 to 10000 nM | – | > 10000 nM | 100 to 1000 nM | > 10000 nM | – |
| Cc1cn2cc(-c3ccc4c(c3)CCN(C3CCNCC3)C4=O)cc(Cl)c2n1 [Compound 216, 6-[8-chloro-2-methylimidazo[1,2-a]pyridin-6-yl]-2-(piperidin-4-yl)-3,4-dihydroisoquinolin-1-one] | – | – | 100 to 1000 nM | – | 100 to 1000 nM | < 100 nM | 1000 to 10000 nM | – |
| Cc1cn2cc(-n3cnc4ccc(N5CCNCC5)cc4c3=O)cc(F)c2n1 [Compound 2195] | > 10000 nM | > 10000 nM | > 10000 nM | > 10000 nM | – | – | – | – |
| Cc1c(O)c(-c2ncc3c(=O)n([C@@H]4CC[C@H](N)C4)ccc3n2)cc2cn(C)nc12 [Compound 1477] | < 100 nM | < 100 nM | – | 100 to 1000 nM | – | – | – | < 100 nM |
| Cc1cn2nc(-c3ccc4c(=O)n([C@@H]5CCN(C)[C@H](C)C5)ncc4n3)cc(C)c2n1 [Compound 1527] | 100 to 1000 nM | < 100 nM | 100 to 1000 nM | 100 to 1000 nM | – | – | – | – |
| Cc1cc(-c2ccc3c(=O)[nH]c(N4CCN(C)CC4)nc3c2)cc2cn(C)nc12 [Compound 2212] | > 10000 nM | 1000 to 10000 nM | 1000 to 10000 nM | 1000 to 10000 nM | – | – | – | – |
| Cn1cc2cc(-c3ncc4c(=O)n([C@H]5CCNC5)ccc4n3)c(O)c(F)c2n1 [Compound 1465] | – | < 100 nM | 100 to 1000 nM | 100 to 1000 nM | 100 to 1000 nM | – | – | – |
| Cc1cc(-c2ccc3ncn(C4CCNCC4)c(=O)c3c2)cc2cn(C)nc12 [Compound 2169] | > 10000 nM | > 10000 nM | > 10000 nM | > 10000 nM | – | – | – | – |
| Cc1cc(-c2ccc3c(=O)n(C4CCNCC4)cnc3c2F)cc2cn(C)nc12 [Compound 234] | – | – | 1000 to 10000 nM | – | 1000 to 10000 nM | < 100 nM | > 10000 nM | – |
| Cc1c(O)c(-c2ccc3c(=O)n([C@H]4C[C@@H](C)N[C@@H](C)C4)ccc3n2)cc2cn(C)nc12 [Compound 1464, 6-[(2S,6R)-2,6-dimethyl-4-piperidyl]-2-(6-hydroxy-2,7-dimethyl-indazol-5-yl)-1,6-naphthyridin-5-one] | – | < 100 nM | < 100 nM | 1000 to 10000 nM | 100 to 1000 nM | – | – | – |
| Cc1cn2cc(-n3cnc4ccc(N(C)C5CCNCC5)cc4c3=O)cc(F)c2n1 [Compound 2200] | > 10000 nM | > 10000 nM | > 10000 nM | > 10000 nM | – | – | – | – |
| Cc1cn2cc(-c3ccc4c(=O)n(C5CCN(C)CC5)cnc4c3)cc(F)c2n1 [Compound 207] | – | – | 1000 to 10000 nM | – | 1000 to 10000 nM | 100 to 1000 nM | 1000 to 10000 nM | – |
| Cn1cc2cc(-c3ccc4c(=O)n(C5CCNCC5)cnc4c3)cc(F)c2n1 [Compound 206] | – | – | 100 to 1000 nM | – | 100 to 1000 nM | < 100 nM | 100 to 1000 nM | – |
| Cc1cn2cc(-c3ccc4c(c3)CCN(C3CCNCC3)C4=O)c(C)cc2n1 [Compound 218, 6-[2,7-dimethylimidazo[1,2-a]pyridin-6-yl]-2-(piperidin-4-yl)-3,4-dihydroisoquinolin-1-one] | – | – | 1000 to 10000 nM | – | 1000 to 10000 nM | 1000 to 10000 nM | 1000 to 10000 nM | – |
| Cc1c(O)c(-c2ccc3c(=O)n([C@@H]4C[C@@H](C)N[C@@H](C)C4)ccc3n2)cc2cn(C)nc12 [Compound 1463, 6-[(2S,6R)-2,6-dimethyl-4-piperidyl]-2-(6-hydroxy-2,7-dimethyl-indazol-5-yl)-1,6-naphthyridin-5-one] | – | < 100 nM | 100 to 1000 nM | 1000 to 10000 nM | 100 to 1000 nM | – | – | – |
